Literature values, collected in patent US20230131804A1, “FARNESOID X RECEPTOR AGONISTS FOR THE TREATMENT OF DISEASE” (Metacrine, Inc., priority 2020, published 2023).
“Also recorded” adds a separate entry of the source.

Details: published clinical studies, higher administered doses; cited from earlier work

CC[C@H]1[C@@H](O)[C@@H]2[C@H](CC[C@]3(C)[C@@H]([C@H](C)CCC(=O)O)CC[C@@H]23)[C@@]2(C)CC[C@@H](O)C[C@@H]12 [OCA, Obeticholic acid]
adverse side effects: pruritis, increased LDL cholesterol and liver toxicity; also recorded: adverse effects of increased LDL cholesterol and liver toxicity
